In publication PMC10800708, “Efficacies and ADME properties of redox active methylene blue and phenoxazine analogues for use in new antimalarial triple drug combinations with amino-artemisinins” (Frontiers in Pharmacology, 2024):
Where two headings read alike, the source gives them in different places.

Columns and labels:
[1] = tested on: Plasmodium falciparum NF54; experiment: Parasite lactate dehydrogenase (pLDH) assay over 72 h, CQ-sensitive strain; assay type: cell-based
Experimental: (§1) The assay was performed in quadruplicate. The data were analyzed by nonlinear regression analysis using the GraphPad PRISM version 5.00 program to determine the IC50 of each compound.

[2] = tested on: Plasmodium falciparum DD2; experiment: Parasite lactate dehydrogenase (pLDH) assay over 72 h, CQ-resistant strain; assay type: cell-based; settings: for Resistance index: IC50 (resistant strain)/IC50 (sensitive strain), DD2/NF54; for IC50: Plasmodium falciparum, CQ-resistant DD2, pLDH 72 h, n = 3, read-out: Plasmodium falciparum IC50 DD2
Experimental: as §1

[3] = Kinetic solubility in PBS; assay type: physicochemical; settings: phosphate buffer saline (PBS), aqueous buffer, kinetic from dmso stock
Experimental: . […] The aqueous mobile phase was water with 0.1% formic acid and the organic mobile phase was acetonitrile with 0.1% formic acid. The gradient method has a flow rate of 0.8 mL/min, with a total run time of 2.5 min starting at 5% organic and increasing to 95% at 1.4 min, holding for 40 s before returning to 5% to re-equilibrate the column. • ii. Lipophilicity. Stock solutions (10 mM) of compounds were diluted to 100 μM in 96-well deep-well plate containing 300 µL of 1-octanol and 300 µL of phosphate buffer at pH 7.4. The plate was agitated on an orbital shaker at 750 rpm for 2 h. The organic and buffer layers of each well were transferred separately to a new analysis plate. The samples were analysed with the HPLC diode array detection as described for kinetic solubility. Samples from both layers were analysed to determine LogD7.4 values. • iii. Passive permeability. A parallel artificial membrane permeation assay (PAMPA) was used to assess the passive permeability of compounds with a 96-well MultiScreen filter plate ([…] pore size, Millipore). The filter plate was precoated with 5% hexadecane in hexane. Stock solutions of compounds were diluted to 1 mM in a donor buffer (pH 6.5). Lucifer yellow was added to the apical wells of the precoated MultiScreen plate containing compound donor solution. The donor buffer solutions were spiked with each test compound (1 mM). The acceptor-buffer solution was prepared by adding 10 μL DMSO to 990 μL acceptor buffer (pH 7.4) and 250 μL were added to the basolateral (acceptor) wells. The donor plate was carefully inserted into the acceptor plate and incubated at room temperature for 4 h. After the incubation period, 50 μL of samples from the acceptor plate were transferred to a round bottom 96-well plate, together with 30 μL of donor buffer for matrix matching. Theoretical equilibrium samples for each test compound were prepared by adding 150 μL of donor solutions to 250 μL acceptor solutions and left at room temperature. These theoretical equilibrium samples represent complete transfer of the compound into the donor well. For the theoretical equilibrium samples, 80 μL were added to the analysis plate. Lastly, 160 μL of the internal standard carbamazepine (0.1 μM) was added to all acceptor and equilibrium samples. A portion of the sample containing Lucifer yellow was analyzed on a BioRad iMarkTM Microplate Absorbance Reader (BioRad, Hercules, CA, United States; […]. Samples were analysed using reverse phase Gemini NX-C18 column (5 μm, 2.1 mm × 50 mm) with a Shimadzu HPLC coupled with an AB Sciex 3200 Q TRAP MS). […]. Plasma stability. Stock solutions of compounds in DMSO (10 mM) were used to spike pooled human plasma. 90 μL of each sample was transferred in duplicate to 6 different wells of a 96-deep well plate. An aliquot of each sample was immediately quenched with ice cold acetonitrile containing the internal standard carbamazepine (0.1 µM), after which the plate was incubated in a water bath (37°C for […]). Aliquots of samples were removed at 5, 15, 40, 60 and 180 min and quenched with ice cold acetonitrile. After samples of the final time point were precipitated, the supernatant was transferred to a round bottom 96-well plate for analysis by LC-MS/MS using a reverse phase Gemini NX-C18 column (5 μm, 2.1 mm × 50 mm) with a Shimadzu HPLC coupled with an AB Sciex 3200 Q TRAP MS) operated at unit resolution in the multiple reaction monitoring (MRM) mode. The aqueous phase consisted of water with 0.1% formic acid and the organic mobile phase consisted of methanol and acetonitrile (1:1, (v/v)) with 0.1% formic acid. […]. The peak area ratios were used to calculate the amount of parent compound remaining and t1/2 in plasma, using the following equations.

[4] = Lipophilicity, 1-octanol/phosphate buffer pH 7.4; assay type: physicochemical; settings: read-out: Lipophilicity LogD7.4
[5] = Plasma stability in pooled human plasma; assay type: in vitro ADME; settings: for half-life: 37°C
Experimental: . […] The aqueous mobile phase was water with 0.1% formic acid and the organic mobile phase was acetonitrile with 0.1% formic acid. The gradient method has a flow rate of 0.8 mL/min, with a total run time of 2.5 min starting at 5% organic and increasing to 95% at 1.4 min, holding for 40 s before returning to 5% to re-equilibrate the column. • ii. Lipophilicity. Stock solutions (10 mM) of compounds were diluted to 100 μM in 96-well deep-well plate containing 300 µL of 1-octanol and 300 µL of phosphate buffer at pH 7.4. The plate was agitated on an orbital shaker at 750 rpm for 2 h. The organic and buffer layers of each well were transferred separately to a new analysis plate. The samples were analysed with the HPLC diode array detection as described for kinetic solubility. Samples from both layers were analysed to determine LogD7.4 values. • iii. Passive permeability. A parallel artificial membrane permeation assay (PAMPA) was used to assess the passive permeability of compounds with a 96-well MultiScreen filter plate ([…] pore size, Millipore). The filter plate was precoated with 5% hexadecane in hexane. Stock solutions of compounds were diluted to 1 mM in a donor buffer (pH 6.5). Lucifer yellow was added to the apical wells of the precoated MultiScreen plate containing compound donor solution. The donor buffer solutions were spiked with each test compound (1 mM). The acceptor-buffer solution was prepared by adding 10 μL DMSO to 990 μL acceptor buffer (pH 7.4) and 250 μL were added to the basolateral (acceptor) wells. The donor plate was carefully inserted into the acceptor plate and incubated at room temperature for 4 h. After the incubation period, 50 μL of samples from the acceptor plate were transferred to a round bottom 96-well plate, together with 30 μL of donor buffer for matrix matching. Theoretical equilibrium samples for each test compound were prepared by adding 150 μL of donor solutions to 250 μL acceptor solutions and left at room temperature. These theoretical equilibrium samples represent complete transfer of the compound into the donor well. For the theoretical equilibrium samples, 80 μL were added to the analysis plate. Lastly, 160 μL of the internal standard carbamazepine (0.1 μM) was added to all acceptor and equilibrium samples. A portion of the sample containing Lucifer yellow was analyzed on a BioRad iMarkTM Microplate Absorbance Reader (BioRad, Hercules, CA, United States; […]. Samples were analysed using reverse phase Gemini NX-C18 column (5 μm, 2.1 mm × 50 mm) with a Shimadzu HPLC coupled with an AB Sciex 3200 Q TRAP MS). […]. Plasma stability. Stock solutions of compounds in DMSO (10 mM) were used to spike pooled human plasma. […]
. Plasma protein binding was determined in pooled human plasma using an ultracentrifugation method. […]

[6] = tested on: CQ-sensitive Plasmodium falciparum NF54 strain; experiment: Fixed ratio combination (isobologram) experiments, 72-h pLDH assay; assay type: cell-based; settings: asexual blood stages, Pf NF54, fixed ratio isobologram
Experimental: Artemisone was used in the combination studies with each of AD01 and PhX6. Combination studies were conducted using a modified version of the method described by [Fivelman et al. (2004)] ([Fivelman et al., 2004]). Against drug-sensitive NF54 P. falciparum parasites in the standard 72-h pLDH assay. The drug stocks were then mixed to make 6 different volumetric ratios to obtain a range of concentrations (Table 2). Concentration ranges for combinations were prepared from the predetermined single IC50 values (Table 3) such that the IC50 of the individual compounds would be in the middle of the plate. The FIC50 and ∑FIC were calculated as described in Eqs 6–8 ([Fivelman et al., 2004]).
Eq. 6: FIC50 of compound A FIC50A=IC50 A+B/IC50 A
Eq. 7: FIC50 of compound B FIC50B=IC50 B+A/IC50 B
Finally, FIC50 values of compounds in respective combinations were plotted as isobolograms.
Although there is currently no standardised method to determine drug combination effects, many models are available ([Wagner and Ulrich-Merzenich, 2009]; [Matthews et al., 2017]). The fixed ratio isobologram method has been widely used in many fields including antimalarial drug discovery and development ([Fivelman et al., 2004]; [Wagner and Ulrich-Merzenich, 2009]; [Matthews et al., 2017]). […] The relationship can also be determined by plotting the FIC50 of each compound on separate axes to create an isobologram. […]

[7] = CQ-sensitive NF54, pLDH 72 h, n = 3, read-out: Plasmodium falciparum IC50 NF54
[8] = P. falciparum NF54, read-out: NF54 IC50 (dotted line in concentration-time figures)
[9] = PBS pH 2, read-out: Predicted solubility pH 2
[10] = PBS pH 6.5, read-out: Predicted solubility pH 6.5
[11] = PBS pH 7.4, read-out: Predicted solubility pH 7.4

| SMILES | IC50 [1, 7] | IC50 [1, 8] | Resistance index [2] | IC50 [2] | solubility at 2 h [3, 9] | solubility at 2 h [3, 10] | solubility at 2 h [3, 11] | logD at 2 h [4] | half-life [5] | Parent remaining in plasma after 3 h ([5]; 3 h) | Interaction in combination with artemisone (overall, in words) [6] |
| --- | --- | --- | --- | --- | --- | --- | --- | --- | --- | --- | --- |
| CCN(CC)c1ccc2nc3ccc(=[N+](CC)CC)cc-3sc2c1 [AD01] | 23.1 ± 2.5 nM | 23 nM | 0.5 | 11.9 ± 2.8 nM | > 150 µM | > 150 µM | > 150 µM | 0.2 | 1.42 h | 21% | enhanced synergistically |
| CCN(CC)c1ccc2nc3c4ccccc4/c(=N\c4ccccn4)cc-3oc2c1 [PhX6] | 41.8 ± 0.04 nM | 41 nM | 0.4 | 16.2 ± 2.4 nM | > 150 µM | < 5 µM | < 5 µM | 1 | > 2.5 h | – | enhanced synergistically |
